Values joined by “and” are separate entries in the source; they are usually repeats but may differ in a detail not shown here. Equal values may be shown once.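 Results reflect a 48-hour exposure of cells in 96-well plates to compound at five concentrations. The concentration for 50% growth inhibition is given as GI50. Definition used: TGI = concentration required for complete inhibition of growth.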

Holding throughout (assay): inhibition of tumour cell growth, NCI panel, 48 h
In test [1] the test system is SNB-19 CNS.
In test [2] the test system is MDA-MB-231 breast.
Test [3] has as its system K-562 leukemia.
Test [4] relates to SR leukemia.
Test [5] deals with OVCAR-4 ovarian.
Test [6] deals with SF-268 CNS.
For test [7], the system named is ACHN renal.
Test [8] has as its system CCRF-CEM leukemia.

On to `C#CCOc1ccc2ncnc(Nc3ccc(NC(=O)C=C)cc3)c2c1`, for which the GI50 in test [1] is > 100 µM; in test [2], 29 µM; in test [3], 3.38 µM; in test [4] it was 3.47 µM; in test [5], > 100 µM; in test [6], 71.3 µM. The GI50 in test [7] is 28.2 µM; in test [8] it was 4.26 µM. Moreover, the TGI is > 100 µM in test [1]; > 100 µM in test [2]; 23.6 µM in test [3]; 57.4 µM in test [4]; > 100 µM in test [5]; > 100 µM in test [6]. Also, the TGI was > 100 µM in test [7] and 40.8 µM in test [8].
`CC(=O)NC(CC(C)C)C(=O)NC(Cc1ccccc1)C(=S)N1CCCC1` (centres undefined): the TGI in test [1], in test [3], in test [5], in test [6], in test [7] and in test [8] was > 100 µM throughout.
In the case of `O=[N+]([O-])c1cccc(C2CC(c3ccccc3)=Nc3ccccc3S2)c1` (centres undefined), the GI50 in test [1] was 15.4 µM; in test [2] it was 12.9 µM; in test [3], 3.76 µM; in test [4], 3.4 µM; in test [5], 11.7 µM; in test [6], 13.1 µM. The GI50 was 13.9 µM in test [7] and 5.91 µM in test [8]. The TGI was 44.8 µM in test [1]; 33.6 µM in test [2]; > 100 µM in test [3]; > 100 µM in test [4]; 26.4 µM in test [5]; 26.9 µM in test [6]. Besides, the TGI was 28.5 µM in test [7] and > 100 µM in test [8].
As to `CSc1ccc2c(c1)C(N1CCN(C)CC1)Cc1ccccc1S2` (centres undefined), the GI50 was 2.36 µM in test [1]; 1.85 µM in test [2]; 1.66 µM in test [4]; 2.6 µM in test [5]; 2.1 µM in test [6]; 1.96 µM in test [7]. Further, in test [8], the GI50 is 1.7 µM. The TGI in test [1] was 28.5 µM and 6.13 µM; in test [2] it was 13.7 µM and 3.65 µM; in test [3], 4.5 µM; in test [4] it was 5.21 µM and 3.83 µM; in test [5] it was 9.66 µM and 9.89 µM; in test [6] it was 14.7 µM and 5.55 µM. Also, the TGI in test [7] was 12.2 µM and 3.95 µM; in test [8] it was 0.845 µM and 3.84 µM.
For `O=C(CC(Cl)=C(Cl)Cl)c1cccc(Cl)c1Cl`, the GI50 is > 100 µM in test [1]; 65.6 µM in test [2]; > 100 µM in test [5]; > 100 µM in test [6]; 47.7 µM in test [7]; 46.6 µM in test [8]. For the same compound, the TGI in test [1], in test [2], in test [5], in test [6], in test [7] and in test [8] was > 100 µM in each case.
As for `N#CC1c2ccccc2C=CN1C(=O)N(c1ccccc1)c1ccccc1` (centres undefined), the GI50 in test [1] is 13.8 µM; in test [2], 2.94 µM; in test [3] it was 3.06 µM; in test [4] it was 2.14 µM; in test [5] it was 2.99 µM; in test [6], 4.31 µM. Further, the GI50 was 1.79 µM in test [7] and 2.97 µM in test [8]. Also, the TGI in test [1] is 26.8 µM; in test [2], 8.35 µM; in test [3], > 100 µM; in test [4], 6.32 µM; in test [5], 8.29 µM; in test [6], 15.4 µM. Moreover, the TGI in test [7] worked out at 3.3 µM; in test [8], 8.99 µM.
Turning to `O=C1c2ccccc2C(=O)c2c(OCCOCCO)cccc21`, the TGI in test [1], in test [2], in test [3], in test [4], in test [5] and in test [6] was > 100 µM throughout. For the same compound, in test [7], the TGI is > 100 µM.
`O=C(COc1cccc(/C=C2\CSc3ccccc3C2=O)c1)Nc1nccs1`: the GI50 in test [1] was 6.48 µM; in test [2], 5.46 µM; in test [3] it was 2.79 µM; in test [4] it was 0.557 µM; in test [5], 3.94 µM; in test [6], 1.76 µM. Further, the figures for the GI50 in test [7] and in test [8] were 2.66 µM and 1.26 µM, respectively. In addition, the TGI was 19.6 µM in test [1]; 21.4 µM in test [2]; > 100 µM in test [3]; 2.44 µM in test [4]; 19.4 µM in test [5]; 3.35 µM in test [6]. Besides, the TGI in test [7] is 7.96 µM; in test [8] it was 4.06 µM.
Take `O=C(Nc1nc2ccccc2s1)Nc1ccc([N+](=O)[O-])cc1Cl`: the GI50 was 8.2 µM in test [1]; 3.21 µM in test [2]; 3.48 µM in test [3]; 3.31 µM in test [4]; 1.86 µM in test [5]; 4.49 µM in test [6]. Besides, the GI50 in test [7] was 6.53 µM; in test [8] it was 2.52 µM. Also, the TGI in test [1] is 26.7 µM; in test [2], 8.59 µM; in test [3] it was > 100 µM; in test [4] it was > 100 µM; in test [5], 3.68 µM; in test [6] it was 18.6 µM. In addition, the results for the TGI in test [7] and in test [8] were 18 µM and > 49.4 µM, respectively.
`COC(=O)CSSCc1ccc([N+](=O)[O-])cc1`: the TGI in test [1] was 77.2 µM; in test [2], 46.8 µM; in test [3] it was > 100 µM; in test [4], 70.2 µM; in test [6], 45.9 µM; in test [7], 36.2 µM. In test [8], this compound had a TGI of 88 µM.
Regarding `CN(C)CCNC(=O)c1cccc2c1Oc1c(cccc1[N+](=O)[O-])O2`, the TGI in test [3] is 7.55 µM; in test [4] it was 15.6 µM; in test [5], > 100 µM; in test [6], 12.2 µM; in test [8], 16.4 µM.
`Nc1ncnc2c1ncn2C1OC(CO)C(O)C1N` (centres undefined): the TGI in test [1], in test [2], in test [3], in test [4], in test [5] and in test [6] was > 100 µM in each case. The TGI in test [7] was > 100 µM.

The values above are taken from PubChem BioAssay (NCI).
